Source: publication PMC2997942 (Molecular pharmaceutics, 2010)
Where two headings read alike, the source gives them in different places.

Legend:
human OCTN2 = settings: read-out: Ki or IC50; Hela with human OCTN2; cited from earlier work
OCTN2 [1] = biological target: T1, OCTN2 (Homo sapiens, UniProt O76082); assay: Inhibition of L-carnitine uptake in stably transfected hOCTN2-MDCK cells; type: cell-based; settings: Observed Ki (±SEM), test set, 10 min, competitive inhibition model
T1 sequence (O76082 1-557): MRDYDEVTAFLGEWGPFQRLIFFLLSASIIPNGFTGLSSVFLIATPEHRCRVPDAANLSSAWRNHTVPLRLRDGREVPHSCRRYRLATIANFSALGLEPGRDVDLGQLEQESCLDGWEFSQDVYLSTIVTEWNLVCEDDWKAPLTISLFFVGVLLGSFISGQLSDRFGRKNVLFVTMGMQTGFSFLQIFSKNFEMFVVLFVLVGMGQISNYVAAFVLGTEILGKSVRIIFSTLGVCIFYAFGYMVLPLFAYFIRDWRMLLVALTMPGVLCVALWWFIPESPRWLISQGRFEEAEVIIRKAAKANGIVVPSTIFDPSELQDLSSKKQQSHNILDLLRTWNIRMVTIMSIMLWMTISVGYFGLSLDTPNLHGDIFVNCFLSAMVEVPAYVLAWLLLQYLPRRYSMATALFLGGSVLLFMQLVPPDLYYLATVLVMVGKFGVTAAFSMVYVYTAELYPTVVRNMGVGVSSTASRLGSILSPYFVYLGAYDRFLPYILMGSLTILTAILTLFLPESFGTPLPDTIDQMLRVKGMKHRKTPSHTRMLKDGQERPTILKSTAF

[2] = clinical; ref Supplemental Table S6 references 1-19; cited from earlier work
OCTN2 [3] = biological target: T1, OCTN2; settings: hOCTN2-Transfected MDCKII Cells, cited from earlier work; for Ki: read-out: Ki or IC50
OCTN2 [4] = settings: Mouse enterocyte; cited from earlier work
[5] = test system: Mouse myoblastic C2C12 cells; settings: read-out: Ki or IC50; cited from earlier work
OCTN2 [6] = biological target: T1, OCTN2; settings: read-out: Ki or IC50; Caki-1 (human proximal tubule cell line); cited from earlier work
Rat kidney OCTN2 = settings: read-out: Ki or IC50; Rat kidney OCTN2 reconstituted in liposomes; cited from earlier work
OCTN2 [7] = biological target: T1, OCTN2; settings: read-out: Ki or IC50; L6 cells overexpressing hOCTN2; cited from earlier work
[8] = in vivo; cited from earlier work
rat OCTN2 [9] = settings: read-out: Ki or IC50; HEK stable cell line with rat OCTN2; cited from earlier work
rat OCTN2 [10] = settings: L6 stable cell line with rat OCTN2; cited from earlier work
OCTN2 [11] = biological target: T1, OCTN2; settings: read-out: Ki or IC50; BeWo (human placental cell line); cited from earlier work

## CO/N=C(\C(=O)N[C@@H]1C(=O)N2C(C(=O)[O-])=C(C[N+]3(C)CCCC3)CS[C@H]12)c1csc(N)n1 [Cefepime]
Human OCTN2
  Ki: 1700 µM

## CC[C@H]1OC(=O)[C@H](C)[C@@H](O[C@H]2C[C@@](C)(OC)[C@@H](O)[C@H](C)O2)[C@H](C)[C@@H](O[C@@H]2O[C@H](C)C[C@H](N(C)C)[C@H]2O)[C@](C)(O)C[C@@H](C)/C(=N\OCOCCOC)[C@H](C)[C@@H](O)[C@]1(C)O [Roxithromycin]
OCTN2 [1]
  Ki: 333 ± 25 µM
[2]
  Documented to cause rhabdomyolysis and/or carnitine deficiency in the literature: Yes with statin[10]

## CCCC(=O)Nc1ccc(OCC(O)CNC(C)C)c(C(C)=O)c1 (stereo not drawn) [Acebutolol]
OCTN2 [3]
  Ki or IC50: Not inhibitor
[2]
  Documented to cause rhabdomyolysis and/or carnitine deficiency in the literature: No

## CCC1=C[C@@H]2CN(C1)Cc1c([nH]c3ccccc13)[C@@](C(=O)OC)(c1cc3c(cc1OC)N(C)[C@H]1[C@@](O)(C(=O)OC)[C@H](OC(C)=O)[C@]4(CC)C=CCN5CC[C@]31[C@@H]54)C2 [Vinorelbine]
OCTN2 [1]
  Ki: 26.8 ± 1.5 µM
[2]
  Documented to cause rhabdomyolysis and/or carnitine deficiency in the literature: No

## CCCN(CCC)S(=O)(=O)c1ccc(C(=O)O)cc1 [Probenecid]
OCTN2 [4]
  Ki or IC50: Not inhibitor
[2]
  Documented to cause rhabdomyolysis and/or carnitine deficiency in the literature: No

## CC[C@]1(O)C[C@H]2CN(CCc3c([nH]c4ccccc34)[C@@](C(=O)OC)(c3cc4c(cc3OC)N(C=O)[C@H]3[C@@](O)(C(=O)OC)[C@H](OC(C)=O)[C@]5(CC)C=CCN6CC[C@]43[C@@H]65)C2)C1 [Vincristine]
[2]
  Documented to cause rhabdomyolysis and/or carnitine deficiency in the literature: Yes[8]

## CC(=O)S[C@@H]1CC2=CC(=O)CC[C@]2(C)[C@H]2CC[C@@]3(C)[C@@H](CC[C@@]34CCC(=O)O4)[C@H]12 [Spironolactone]
OCTN2 [3]
  Ki: 26 µM
[2]
  Documented to cause rhabdomyolysis and/or carnitine deficiency in the literature: No

## Cc1cn([C@H]2C[C@H](N=[N+]=[N-])[C@@H](CO)O2)c(=O)[nH]c1=O [Zidovudine]
[5]
  Ki: 6 µM

## CO/N=C(\C(=O)N[C@@H]1C(=O)N2C(C(=O)[O-])=C(C[n+]3ccc(N)n3CCO)CS[C@H]12)c1csc(N)n1 [Cefoselis]
[2]
  Documented to cause rhabdomyolysis and/or carnitine deficiency in the literature: Yes[3]
Human OCTN2
  Ki: 6400 µM

## NCC1(CC(=O)O)CCCCC1 [Gabapentin]
[2]
  Documented to cause rhabdomyolysis and/or carnitine deficiency in the literature: No

## CCCC[N+]1(C)C2CC(OC(=O)C(CO)c3ccccc3)CC1C1OC12 (single isomer, unassigned; (-)) [(−)-N- butylscopolamine]
OCTN2 [6]
  Ki: 1010 µM

## COc1ccc2[nH]c([S+]([O-])Cc3ncc(C)c(OC)c3C)nc2c1 (stereo not drawn) [Omeprazole]
Rat kidney OCTN2
  Ki: 14.6 µM
[2]
  Documented to cause rhabdomyolysis and/or carnitine deficiency in the literature: Yes[6]

## CC(C)c1nc(CN(C)C(=O)N[C@H](C(=O)N[C@@H](Cc2ccccc2)C[C@H](O)[C@H](Cc2ccccc2)NC(=O)OCc2cncs2)C(C)C)cs1 [Ritonavir]
[2]
  Documented to cause rhabdomyolysis and/or carnitine deficiency in the literature: Yes with statin[5]

## O=C(O)COCCN1CCN(C(c2ccccc2)c2ccc(Cl)cc2)CC1 (stereo not drawn) [Cetirizine]
[2]
  Documented to cause rhabdomyolysis and/or carnitine deficiency in the literature: No

## C[C@H]1O[C@@H](O[C@H]2[C@@H](O)C[C@H](O[C@H]3[C@@H](O)C[C@H](O[C@H]4CC[C@@]5(C)[C@H](CC[C@@H]6[C@@H]5C[C@@H](O)[C@]5(C)[C@@H](C7=CC(=O)OC7)CC[C@]65O)C4)O[C@@H]3C)O[C@@H]2C)C[C@H](O)[C@@H]1O [Digoxin]
OCTN2 [3]
  Ki or IC50: Not inhibitor

## CO/N=C(\C(=O)N[C@@H]1C(=O)N2C(C(=O)O)=C(COC(N)=O)CS[C@H]12)c1ccco1 [Cefuroxime]
OCTN2 [7]
  Ki: 525 µM
[2]
  Documented to cause rhabdomyolysis and/or carnitine deficiency in the literature: Yes[9]

## Nc1c2c(nc3ccccc13)CCCC2 [Tacrine]
[8]
  Cmax: 134 nM
Rat OCTN2 [9]
  Ki: 500 µM

## Ciclotropium
OCTN2 [6]
  Ki: 30 µM
[8]
  Cmax: 20.6 nM
[2]
  Documented to cause rhabdomyolysis and/or carnitine deficiency in the literature: No

## NS(=O)(=O)c1cc(C(=O)O)c(NCc2ccco2)cc1Cl [Furosemide]
[2]
  Documented to cause rhabdomyolysis and/or carnitine deficiency in the literature: No

## N.N.[Cl][Pt][Cl] [Cisplatin]
Rat OCTN2 [10]
  Ki or IC50: Not inhibitor
[8]
  Cmax: 8130 nM
[2]
  Documented to cause rhabdomyolysis and/or carnitine deficiency in the literature: Yes[19]

## CC12CC3CC(C)(C1)CC(N)(C3)C2 [Memantine]
OCTN2 [3]
  Ki or IC50: Not inhibitor
[2]
  Documented to cause rhabdomyolysis and/or carnitine deficiency in the literature: No

## C[C@H](CS)C(=O)N1CCC[C@H]1C(=O)O [Captopril]
OCTN2 [3]
  Ki or IC50: Not inhibitor

## CN/C(=N/CCSCc1nc[nH]c1C)NC#N [Cimetidine]
[2]
  Documented to cause rhabdomyolysis and/or carnitine deficiency in the literature: No

## CNC(=C[N+](=O)[O-])NCCSCc1csc(CN(C)C)n1 [Nizatidine]
OCTN2 [1]
  Ki: 183 ± 17 µM
[2]
  Documented to cause rhabdomyolysis and/or carnitine deficiency in the literature: No

## CCc1c2c(nc3ccc(OC(=O)N4CCC(N5CCCCC5)CC4)cc13)-c1cc3c(c(=O)n1C2)COC(=O)[C@]3(O)CC [Irinotecan]
OCTN2 [1]
  Ki: 219 ± 18 µM

## CCCC(CCC)C(=O)O [Valproic acid]
[2]
  Documented to cause rhabdomyolysis and/or carnitine deficiency in the literature: Yes[1]

## C[N+](C)(C)NCCC(=O)[O-] [Mildronate]
OCTN2 [3]
  Ki: 26 µM
[2]
  Documented to cause rhabdomyolysis and/or carnitine deficiency in the literature: No

## Cc1nnc(SCC2=C(C(=O)O)N3C(=O)[C@@H](NC(=O)Cn4cnnn4)[C@H]3SC2)s1 [Cefazolin]
OCTN2 [7]
  Ki: 6740 µM

## Cc1c(F)c(N2CCNC(C)C2)cc2c1c(=O)c(C(=O)O)cn2C1CC1 (stereo not drawn) [Grepafloxacin]
OCTN2 [11]
  Ki: 300 µM

## CN(C)C(=N)N=C(N)N [Metformin]
OCTN2 [6]
  Ki: 4960 µM
[2]
  Documented to cause rhabdomyolysis and/or carnitine deficiency in the literature: Yes[14]

## O=C(Cc1cccs1)N[C@@H]1C(=O)N2C(C(=O)[O-])=C(C[n+]3ccccc3)CS[C@H]12 [Cephaloridine]
Human OCTN2
  Ki: 230 µM

## O=C1[C@H](CC[C@H](O)c2ccc(F)cc2)[C@@H](c2ccc(O)cc2)N1c1ccc(F)cc1 [Ezetimibe]
OCTN2 [1]
  Ki: 29.3 ± 5 µM
[2]
  Documented to cause rhabdomyolysis and/or carnitine deficiency in the literature: Yes with statin[15]

## Cc1nc2n(c(=O)c1CCN1CCC(c3noc4cc(F)ccc34)CC1)CCCC2 [Risperidone]
[2]
  Documented to cause rhabdomyolysis and/or carnitine deficiency in the literature: Yes with statin[17]

## COc1cccc2c1C(=O)c1c(O)c3c(c(O)c1C2=O)C[C@@](O)(C(C)=O)C[C@@H]3O[C@H]1C[C@H](N)[C@H](O)[C@H](C)O1 [Daunorubicin]
OCTN2 [1]
  Ki: 502 ± 41 µM
[2]
  Documented to cause rhabdomyolysis and/or carnitine deficiency in the literature: No

## O=C1[O][Pt]2([NH][C@@H]3CCCC[C@H]3[NH]2)[O]C1=O [Oxaliplatin]
Rat OCTN2 [10]
  Ki or IC50: Not inhibitor
[2]
  Documented to cause rhabdomyolysis and/or carnitine deficiency in the literature: No

## COCCc1ccc(OCC(O)CNC(C)C)cc1 (stereo not drawn) [Metoprolol]
OCTN2 [3]
  Ki or IC50: Not inhibitor

## COC(=O)[C@H]1[C@H]2C[C@@H]3c4[nH]c5cc(OC)ccc5c4CCN3C[C@H]2C[C@@H](OC(=O)c2cc(OC)c(OC)c(OC)c2)[C@@H]1OC [Reserpine]
OCTN2 [1]
  Ki: 32.2 ± 4.8 µM
[2]
  Documented to cause rhabdomyolysis and/or carnitine deficiency in the literature: No

## NC(N)=Nc1nc(CSCCC(N)=NS(N)(=O)=O)cs1 [Famotidine]
OCTN2 [6]
  Ki: 1920 µM
[2]
  Documented to cause rhabdomyolysis and/or carnitine deficiency in the literature: Yes[18]

## OC1(c2ccc(Cl)c(C(F)(F)F)c2)CCN(CCCC(c2ccc(F)cc2)c2ccc(F)cc2)CC1 [Penfluridol]
OCTN2 [1]
  Ki: 26.5 ± 4.1 µM
[2]
  Documented to cause rhabdomyolysis and/or carnitine deficiency in the literature: No

## CCN(CC)CC(=O)Nc1c(C)cccc1C [Lidocaine]
OCTN2 [4]
  Ki or IC50: Not inhibitor
[2]
  Documented to cause rhabdomyolysis and/or carnitine deficiency in the literature: No

## COc1cc(N)c(Cl)cc1C(=O)NC1CCN(CCCOc2ccc(F)cc2)CC1OC (stereo not drawn) [Cisapride]
OCTN2 [1]
  Ki: 66.7 ± 9.8 µM
[2]
  Documented to cause rhabdomyolysis and/or carnitine deficiency in the literature: Yes[13]
